Reference: ChEMBL document CHEMBL5291721, “A preclinical secondary pharmacology resource illuminates target-adverse drug reaction associations of marketed drugs” (Nat Commun, 2023)

Columns and labels:
Bile acid receptor [1] = target: T1, Bile acid receptor (Homo sapiens, UniProt Q96RI1); assay type: functional
T1 sequence (Q96RI1 whole entry): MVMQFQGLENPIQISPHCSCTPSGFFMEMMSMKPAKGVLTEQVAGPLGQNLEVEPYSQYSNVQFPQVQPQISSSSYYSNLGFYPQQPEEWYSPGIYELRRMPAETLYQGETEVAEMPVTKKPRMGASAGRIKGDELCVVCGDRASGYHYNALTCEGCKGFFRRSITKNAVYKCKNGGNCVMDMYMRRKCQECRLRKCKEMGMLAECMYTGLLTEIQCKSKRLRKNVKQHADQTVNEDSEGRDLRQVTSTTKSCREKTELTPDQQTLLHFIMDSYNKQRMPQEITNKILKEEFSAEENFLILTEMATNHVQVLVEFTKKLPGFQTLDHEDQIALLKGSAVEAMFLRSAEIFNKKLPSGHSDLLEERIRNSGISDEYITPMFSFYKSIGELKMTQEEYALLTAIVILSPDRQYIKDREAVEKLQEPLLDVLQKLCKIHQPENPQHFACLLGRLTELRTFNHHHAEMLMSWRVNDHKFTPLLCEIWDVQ

Bile acid receptor [2] = target: T1, Bile acid receptor; assay type: functional; remark: listed apart in the source
[3] = target: T2, Retinoic acid receptor gamma (Homo sapiens, UniProt P13631); assay type: functional, cell-based
T2 sequence (P13631 whole entry): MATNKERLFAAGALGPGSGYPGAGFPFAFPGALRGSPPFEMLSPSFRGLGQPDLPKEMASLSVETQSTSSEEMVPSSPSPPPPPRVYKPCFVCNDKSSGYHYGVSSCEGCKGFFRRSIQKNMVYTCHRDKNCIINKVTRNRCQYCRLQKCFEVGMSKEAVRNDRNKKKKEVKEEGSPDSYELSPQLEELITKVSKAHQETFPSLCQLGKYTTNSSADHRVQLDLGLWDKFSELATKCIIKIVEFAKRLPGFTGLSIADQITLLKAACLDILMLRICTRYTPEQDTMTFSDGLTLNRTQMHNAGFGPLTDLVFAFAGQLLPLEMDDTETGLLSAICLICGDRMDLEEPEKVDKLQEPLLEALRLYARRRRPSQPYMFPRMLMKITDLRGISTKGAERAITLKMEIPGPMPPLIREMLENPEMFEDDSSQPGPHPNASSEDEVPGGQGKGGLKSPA

[4] = target: T3, Peroxisome proliferator-activated receptor alpha (Homo sapiens, UniProt Q07869); assay type: functional
T3 sequence (Q07869 whole entry): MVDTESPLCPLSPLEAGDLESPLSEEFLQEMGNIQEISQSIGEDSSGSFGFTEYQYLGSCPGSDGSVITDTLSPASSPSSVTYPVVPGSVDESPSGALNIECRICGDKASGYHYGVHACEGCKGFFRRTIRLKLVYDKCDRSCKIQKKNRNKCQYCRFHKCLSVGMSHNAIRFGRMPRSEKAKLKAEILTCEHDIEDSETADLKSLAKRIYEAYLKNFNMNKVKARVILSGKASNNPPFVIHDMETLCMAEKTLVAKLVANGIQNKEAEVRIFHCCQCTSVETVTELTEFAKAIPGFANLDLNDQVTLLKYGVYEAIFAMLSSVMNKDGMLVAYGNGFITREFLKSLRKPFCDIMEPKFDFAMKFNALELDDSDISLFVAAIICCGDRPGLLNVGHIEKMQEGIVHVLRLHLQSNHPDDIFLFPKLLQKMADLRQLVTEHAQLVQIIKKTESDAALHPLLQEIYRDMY

[5] = target: T4, Retinoic acid receptor beta (Homo sapiens, UniProt P10826); assay type: functional, cell-based
T4 sequence (P10826 whole entry): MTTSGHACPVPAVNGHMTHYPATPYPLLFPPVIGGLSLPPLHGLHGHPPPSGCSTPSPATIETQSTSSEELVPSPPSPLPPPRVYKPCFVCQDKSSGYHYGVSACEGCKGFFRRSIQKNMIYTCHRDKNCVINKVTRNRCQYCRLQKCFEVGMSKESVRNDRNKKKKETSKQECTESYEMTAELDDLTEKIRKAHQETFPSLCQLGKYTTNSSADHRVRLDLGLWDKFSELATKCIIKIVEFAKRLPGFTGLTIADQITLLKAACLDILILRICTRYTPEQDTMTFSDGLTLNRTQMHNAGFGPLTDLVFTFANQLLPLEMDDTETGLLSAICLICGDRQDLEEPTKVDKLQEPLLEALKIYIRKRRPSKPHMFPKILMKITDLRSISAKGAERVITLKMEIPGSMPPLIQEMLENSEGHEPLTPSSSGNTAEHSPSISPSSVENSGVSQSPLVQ

Glucocorticoid receptor = target: T5, Glucocorticoid receptor (Homo sapiens, UniProt P04150); assay type: functional
T5 sequence (P04150 whole entry): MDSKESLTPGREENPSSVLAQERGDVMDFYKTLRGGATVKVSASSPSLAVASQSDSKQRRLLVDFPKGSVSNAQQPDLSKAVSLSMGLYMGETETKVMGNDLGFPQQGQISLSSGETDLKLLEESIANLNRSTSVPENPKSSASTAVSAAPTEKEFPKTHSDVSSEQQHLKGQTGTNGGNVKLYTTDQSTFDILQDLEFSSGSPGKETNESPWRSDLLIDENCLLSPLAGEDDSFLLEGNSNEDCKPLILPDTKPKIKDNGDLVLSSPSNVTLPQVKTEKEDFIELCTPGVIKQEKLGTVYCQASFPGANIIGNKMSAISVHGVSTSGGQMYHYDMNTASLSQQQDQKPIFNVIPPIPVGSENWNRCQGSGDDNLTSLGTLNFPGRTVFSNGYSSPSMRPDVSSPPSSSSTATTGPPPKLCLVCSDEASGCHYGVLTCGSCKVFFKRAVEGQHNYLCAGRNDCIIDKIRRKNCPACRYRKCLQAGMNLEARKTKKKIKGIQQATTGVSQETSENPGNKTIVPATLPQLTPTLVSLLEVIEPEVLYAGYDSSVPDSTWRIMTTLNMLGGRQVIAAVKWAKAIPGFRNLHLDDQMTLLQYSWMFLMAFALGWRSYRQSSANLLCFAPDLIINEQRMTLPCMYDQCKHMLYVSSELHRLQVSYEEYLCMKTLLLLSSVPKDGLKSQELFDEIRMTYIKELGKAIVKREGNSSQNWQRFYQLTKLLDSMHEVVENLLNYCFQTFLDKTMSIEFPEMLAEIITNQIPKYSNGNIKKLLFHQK
Also: assay procedure not described here.

Row | AC50 (Glucocorticoid receptor) [µM] | SMILES | AC50 (Bile acid receptor [1]) [µM] | AC50 (Bile acid receptor [2]) [µM] | AC50 [3] [µM] | AC50 [4] [µM] | AC50 [5] [µM]
1 |  | CC(=O)N1CCN(c2ccc(OCC3COC(Cn4ccnc4)(c4ccc(Cl)cc4Cl)O3)cc2)CC1 (configuration not stated) [KETOCONAZOLE] | > 30 | > 10 | > 30 | > 30 | 3.3
2 | > 30 | CCCCCCOC(=O)NC(=N)c1ccc(NCc2nc3cc(C(=O)N(CCC(=O)OCC)c4ccccn4)ccc3n2C)cc1 [DABIGATRAN ETEXILATE] |  |  |  |  | 
3 | > 30 | COc1ccc(-n2nc(C(N)=O)c3c2C(=O)N(c2ccc(N4CCCCC4=O)cc2)CC3)cc1 [APIXABAN] |  |  |  |  | 
